From patent US8546382B2, “Methods for enhancing hematopoietic progenitor cell engraftment” (Children's Medical Center Corporation, priority 2009, dated 2013)
Entries after “also recorded” stand apart in the source; their conditions may differ.

Key:
[1] = system: bone marrow adipocyte formation; conditions: in vitro and in vivo in models of streptozotocin-induced diabetes; cited from earlier work
[2] = system: wild-type female FVB mice; assay: BM transplantation in lethally irradiated wild-type mice with daily BADGE; type: in vivo, mouse
Procedure: BM transplants were performed in wild-type female FVB mice as described for FIG. 2 except that 30 mg/kg BADGE or control vehicle (DMSO 10%) were administered through daily intra-peritoneal injections from the day prior to irradiation until day 14 post-transplant. 4a. […] 4b. Colony forming unit assay (CFU) from the recovered donor BM.
Finally, it was tested whether pharmacologic antagonism of adipogenesis could enhance bone marrow engraftment in wild-type mice.
Thorax, tibias and tails for homeostasis studies were isolated from wildtype C57BL6/J mice. When BM transplantation was performed, B6.SJL-Ptprca Pep3b/BoyJ were used as donors to take advantage of the CD45.1/CD45.2 allelic system (Jackson Laboratories #0002014). Bone marrow transplantation and CFU-Spleen assays were performed on lethally irradiated mice (two 5.5Gy doses separated by 3 hrs) and cells were administered by tail vein injection within 24 hrs of lethal irradiation. For competitive transplantation, samples were competed against 250,000 recipient-matched competitor femoral bone marrow. FVB wildtype litter-mates mice were used as controls for FVB.A-ZIP/F1 fatless mice. During BM transplantation assays FVB or FVB.A-ZIP/F1 mice (CD45.1) received 200,000 MHC-matched (H^q) wildtype BM from DBA/1J mice (CD45.2). Secondary transplants were performed through recovery of the CD45.2 […] BM passed through the FVB wildtype or FVB.A-ZIP/F1 microenvironment, which was then transplanted into FVB (CD45.1) recipients together with 250,000 FVB (CD45.1) wildtype competitor BM cells. For pharmacological inhibition of adipocyte formation, BM transplants were performed in wild-type female FVB mice as described above, except that 30 mg/kg BADGE or control vehicle (DMSO 10%) were administered in daily intraperitoneal injections starting one day prior to irradiation and continuing until day 14 post-transplant. Solutions were made such that 500 mg BADGE (Fluka) was resuspended in 8.3 ml DMSO (Sigma) and diluted in PBS to a final concentration of 10% DMSO for administration at 30 mg/kg in 100 ul. Aliquots were stored at −20° C. and thawed daily. Multicolor flow cytometry was performed in a special order BD five-laser LSRII flow cytometer. Cell cycle analysis was performed with DAPI (Sigma) in cells fixed in 2% paraformaldehyde for 15 min at 4° C. For all statistical analysis an un-paired two-tailed Student's t-test was performed assuming experimental samples of equal variance. […]
Mice were lethally irradiated with 11-12Gy on a split dose separated by 2.5 h and BM transplants were performed within 24 h by tail-vein injection. Engraftment was measured monthly through eye bleed and FACS analysis with CD45.1-FITC (eBiosciences), CD45.2-PE or CD45.2-biotin, CD3-PE, CD19-PE, Mac-1-PE. […]

Wildtype BM = assay: Colony forming unit (CFU) assay of wildtype BM plated with BADGE in vitro; type: cell-based, mouse; conditions: BADGE 30 mg/kg vs DMSO vehicle control (0.5 μL/mL); after 8-10 days
Procedure: 14a. Wildtype BM was plated in the presence of BADGE 30 mg/kg, or DMSO vehicle control (0.5 μL/mL).
Colony forming unit (CFU) assays were performed in complete M3434 methylcellulose (Stem Cell Technologies) following the manufacturer's instructions. Colonies were scored on day 8-10 on coded plates for unbiased counts.

[3] = system: whole bone marrow collected from the DBA/1J mouse strain; assay: Hematopoietic colony formation in methylcellulose (M3434) in the presence of PPAR gamma inhibitors; type: cell-based; conditions: 3 ml M3434 with 1.5 μL of working concentration of each compound; N=2
Procedure: Progenitor activity was measured by formation of hematopoietic colonies in methylcellulose (M3434) from whole bone marrow collected from the DBA/1J mouse strain. Cells were plated in 3 ml M3434 along with 1.5 μL of the working concentration of each compound.

patients = patients treated with the PPARγ agonist; cited from earlier work

CC(C)(c1ccc(OCC2CO2)cc1)c1ccc(OCC2CO2)cc1 (centres unmarked) [BADGE, Bisphenol-A-DiGlycidyl-Ether]
Bone marrow adipocyte formation [1]: prevent bone marrow adipocyte formation
White blood cell (WBC) / leukocyte counts in peripheral blood in the post-transplant period ([2]; 30 mg/kg BADGE daily i.p. from day prior to irradiation until day 14 post-transplant, vs vehicle (DMSO 10%)): Higher peripheral blood leukocyte counts; also recorded: accelerated recovery
Colony forming units (CFU) from the recovered donor BM ([2]; 30 mg/kg BADGE daily i.p., donor CD45.2 BM recovered day 17 post-transplant): enrichment in colony forming units
BM adipocyte formation by H&E staining of femurs ([2]; BADGE for two weeks following BM transplantation, mice sacrificed day 17 post-transplant): successful inhibition of BM adipocyte formation
Hematopoietic recovery after BM transplant ([2]; pharmacologic inhibition of adipocyte formation with BADGE): enhances hematopoietic recovery
Ability to form CFUs (hematopoietic colony formation) in vitro (Wildtype BM): does not enhance hematopoietic colony formation; also recorded: No difference

O=C(Nc1ccncc1)c1cc([N+](=O)[O-])ccc1Cl [T0070907, 2-chloro-5-nitro-N-4-pyridinyl-benzamide]
Number of hematopoietic colonies relative to vehicle control [3]: fewer colonies relative to the vehicle control

CN(CCOc1ccc(CC2SC(=O)NC2=O)cc1)c1ccccn1 (centres unmarked) [rosiglitazone]
Adverse haematological effect in treated patients (patients): myelosuppression
